# Laboratory results reported in patent US4803209A, “Substituted 2,3-diphenyl-1,2-dihydroquinoxalines” (International Minerals & Chemical Corp., priority 1987, dated 1989).
# Where two headings read alike, the source gives them in different places. Where a SMILES comes first, the peptide text is derived from it. Bridges are numbered along the chain shown (N, C = ends). [ ]: non-standard residue; d: D form. The star is where a group is joined. Ileψ(thiazoline)Cys = CC[C@H](C)[C@H](N)C1=N[C@H](C(=O)*)CS1; dOrn = NCCC[C@@H](N)C(=O)O
# Columns and labels:
# [1] = system: Clostridium perfringens (Cp); assay type: cell-based; details: Anaerobic, 6 h, 37° C.
# [2] = system: Salmonella typhimurium; assay type: cell-based
# [3] = system: antibiotic resistant E. coli (E.C. 324); assay type: cell-based; details: Gram Neg., 6 h, 37° C., aerobic
# [4] = system: Streptococcus sp. 1 X C15 (Strep C15); assay type: cell-based
# [5] = system: E. coli strain 046 (E.C. 046); assay type: cell-based
# [6] = system: Bacteroides fragilis (Bf); test: Antimicrobial growth inhibition, Bf; assay type: cell-based; details: Anaerobic, 6 h, 37° C.
# [7] = system: Streptococcus sp. 1 X A7 (Strep A7); assay type: cell-based
# [8] = Growth promotion and feed utilization in chicks; assay type: in vivo, chicks (broiler cockerels); details: 8 weeks
# [9] = system: Eimeria tenella Eli Lilly Strain 65 (Lilly 65); test: In vitro anticoccidial test in chick kidney cell monolayers; assay type: cell-based; details: 72 h, 3 days, read-out: % Inhibition of Coccidia
# [10] = experiment set 1, 75 ppm in feed
# [11] = experiment set 2, 50 ppm in feed
# [12] = experiment set 3, 50 ppm in feed
# [13] = experiment set 4, 50 ppm in feed
# [14] = experiment set 5, 50 ppm in feed
compound,measurement,setting,value
CN(C)[C@@H]1C(O)=C(C(N)=O)C(=O)[C@@]2(O)C(O)=C3C(=O)c4c(O)ccc(Cl)c4[C@@](C)(O)[C@H]3C[C@@H]12 [Chlortetracycline],Growth of Cp in the presence of the test compound,[1]; 6.4 ppm,+
same,Growth of Cp in the presence of the test compound,[1]; 64 ppm,+
same,Growth of S.T. in the presence of the test compound,[2]; 6.4 ppm,-
same,Growth of S.T. in the presence of the test compound,[2]; 64 ppm,-
same,Growth of E.C. 324 in the presence of the test compound,[3]; 6.4 ppm,+
same,Growth of E.C. 324 in the presence of the test compound,[3]; 64 ppm,-
same,Growth of Strep C15 in the presence of the test compound,[4]; 6.4 ppm,-
same,Growth of Strep C15 in the presence of the test compound,[4]; 64 ppm,-
same,Growth of E.C. 046 in the presence of the test compound,[5]; 6.4 ppm,+
same,Growth of E.C. 046 in the presence of the test compound,[5]; 64 ppm,-
same,Growth of Bf in the presence of the test compound,[6]; 6.4 ppm,+
same,Growth of Bf in the presence of the test compound,[6]; 64 ppm,-
same,Growth of Strep A7 in the presence of the test compound,[7]; 6.4 ppm,-
same,Growth of Strep A7 in the presence of the test compound,[7]; 64 ppm,-
CC[C@H](C)[C@H](N)C1=N[C@H](C(=O)N[C@@H](CC(C)C)C(=O)N[C@H](CCC(=O)O)C(=O)N[C@H](C(=O)N[C@H]2CCCCNC(=O)[C@H](CC(N)=O)NC(=O)[C@@H](CC(=O)O)NC(=O)[C@H](Cc3cnc[nH]3)NC(=O)[C@@H](Cc3ccccc3)NC(=O)[C@H]([C@@H](C)CC)NC(=O)[C@@H](CCCN)NC2=O)[C@@H](C)CC)CS1 [Bacitracin] ({Ileψ(thiazoline)Cys}-L[dE]IK[dOrn]I[dF]H[dD]N; lactam 4-C),Growth of Cp in the presence of the test compound,[1]; 6.4 ppm,+
same,Growth of Cp in the presence of the test compound,[1]; 64 ppm,-
same,Growth of S.T. in the presence of the test compound,[2]; 6.4 ppm,+
same,Growth of S.T. in the presence of the test compound,[2]; 64 ppm,+
same,Growth of E.C. 324 in the presence of the test compound,[3]; 6.4 ppm,+
same,Growth of E.C. 324 in the presence of the test compound,[3]; 64 ppm,+
same,feed efficiency (% better or worse than control),[8]; [10],19%
same,weight gain (% better or worse than control),[8]; [10],25%
same,feed efficiency (% better or worse than control),[8]; [11],32%
same,weight gain (% better or worse than control),[8]; [11],40%
same,Growth of Strep C15 in the presence of the test compound,[4]; 6.4 ppm,-
same,Growth of Strep C15 in the presence of the test compound,[4]; 64 ppm,-
same,Growth of E.C. 046 in the presence of the test compound,[5]; 6.4 ppm,+
same,Growth of E.C. 046 in the presence of the test compound,[5]; 64 ppm,+
same,Growth of Bf in the presence of the test compound,[6]; 6.4 ppm,-
same,Growth of Bf in the presence of the test compound,[6]; 64 ppm,-
same,Growth of Strep A7 in the presence of the test compound,[7]; 6.4 ppm,-
same,Growth of Strep A7 in the presence of the test compound,[7]; 64 ppm,-
CC1(C)S[C@@H]2[C@H](NC(=O)Cc3ccccc3)C(=O)N2[C@H]1C(=O)O [Penicillin],Growth of Cp in the presence of the test compound,[1]; 6.4 ppm,+
same,Growth of Cp in the presence of the test compound,[1]; 64 ppm,+
same,Growth of S.T. in the presence of the test compound,[2]; 6.4 ppm,+
same,Growth of S.T. in the presence of the test compound,[2]; 64 ppm,-
same,Growth of E.C. 324 in the presence of the test compound,[3]; 6.4 ppm,+
same,Growth of E.C. 324 in the presence of the test compound,[3]; 64 ppm,-
same,feed efficiency (% better or worse than control),[8]; [10],5.5%
same,weight gain (% better or worse than control),[8]; [10],20%
same,feed efficiency (% better or worse than control),[8]; [11],32%
same,weight gain (% better or worse than control),[8]; [11],40%
same,feed efficiency (% better or worse than control),[8]; [12],13%
same,weight gain (% better or worse than control),[8]; [12],35%
same,feed efficiency (% better or worse than control),[8]; [13],11%
same,weight gain (% better or worse than control),[8]; [13],19%
same,feed efficiency (% better or worse than control),[8]; [14],21%
same,weight gain (% better or worse than control),[8]; [14],50%
same,Growth of Strep C15 in the presence of the test compound,[4]; 6.4 ppm,-
same,Growth of Strep C15 in the presence of the test compound,[4]; 64 ppm,-
same,Growth of E.C. 046 in the presence of the test compound,[5]; 6.4 ppm,+
same,Growth of E.C. 046 in the presence of the test compound,[5]; 64 ppm,-
same,Growth of Bf in the presence of the test compound,[6]; 6.4 ppm,+
same,Growth of Bf in the presence of the test compound,[6]; 64 ppm,-
same,Growth of Strep A7 in the presence of the test compound,[7]; 6.4 ppm,-
same,Growth of Strep A7 in the presence of the test compound,[7]; 64 ppm,-
NC[C@H]1O[C@H](O[C@H]2[C@H](O)[C@@H](O[C@H]3O[C@H](CO)[C@@H](O)[C@H](N)[C@H]3O)[C@H](N)C[C@@H]2N)[C@H](O)[C@@H](O)[C@@H]1O [Kanamycin],Growth of Cp in the presence of the test compound,[1]; 6.4 ppm,+
same,Growth of Cp in the presence of the test compound,[1]; 64 ppm,+
same,Growth of S.T. in the presence of the test compound,[2]; 6.4 ppm,+
same,Growth of S.T. in the presence of the test compound,[2]; 64 ppm,-
same,Growth of E.C. 324 in the presence of the test compound,[3]; 6.4 ppm,+
same,Growth of E.C. 324 in the presence of the test compound,[3]; 64 ppm,-
same,feed efficiency (% better or worse than control),[8]; [13],19%
same,weight gain (% better or worse than control),[8]; [13],14%
same,Growth of Strep C15 in the presence of the test compound,[4]; 6.4 ppm,-
same,Growth of Strep C15 in the presence of the test compound,[4]; 64 ppm,-
same,Growth of E.C. 046 in the presence of the test compound,[5]; 6.4 ppm,+
same,Growth of E.C. 046 in the presence of the test compound,[5]; 64 ppm,+
same,Growth of Bf in the presence of the test compound,[6]; 6.4 ppm,-
same,Growth of Bf in the presence of the test compound,[6]; 64 ppm,-
same,Growth of Strep A7 in the presence of the test compound,[7]; 6.4 ppm,-
same,Growth of Strep A7 in the presence of the test compound,[7]; 64 ppm,-
"Clc1ccc(C2=Nc3ccccc3NC2c2ccc(Cl)cc2Cl)c(Cl)c1 (centres unmarked) [Example 6, 2,3-di(2,4-dichlorophenyl)-1,2-dihydroquinoxaline]",inhibition at 0.1 ppm,[9]; 0.1 ppm,60%
same,inhibition at 10 ppm,[9]; 10.0 ppm,100%
